≈ marks a conversion by molar mass, not a printed value.
Assays:
SNU-5 [1] = test: Antitumor activity against human SNU5 cells xenografted in nu/nu CD1 mouse model assessed as tumor growth inhibition at 100 mg/kg, po qd for 20 days; details: SNU-5, po, 480 h, read-out: TGI
[2] = target: Hepatocyte growth factor receptor (Homo sapiens, UniProt P08581, Y1230C); test: Inhibition of cMET Y1230C mutant (unknown origin) autophosphorylation
Salmonella typhimurium [3] = test: Mutagenic activity in Salmonella typhimurium TA100 by Ames test in absence of liver S9 fraction; format: toxicity, organism-based; details: salmonella enterica subsp. enterica serovar typhimurium
[4] = Volume of distribution at steady state in Sprague-Dawley rat at 2 mg/kg, iv; format: ADME, organism-based; design: dose 2 mg/kg, route intravenous; details: in vivo, read-out: Vdss
SNU-5 [5] = test: Antitumor activity against human SNU5 cells xenografted in nu/nu CD1 mouse model assessed as tumor growth inhibition at 200 mg/kg, po qd for 20 days; details: SNU-5, po, 480 h, read-out: TGI
Aurora kinase B [6] = target: T1, Aurora kinase B (Homo sapiens, UniProt Q96GD4); test: Inhibition of aurora-B in human HT-29 cells assessed as phosphorylation of histone H3 at Ser10 in presence of mouse plasma; format: cell-based
T1 sequence (Q96GD4 whole entry): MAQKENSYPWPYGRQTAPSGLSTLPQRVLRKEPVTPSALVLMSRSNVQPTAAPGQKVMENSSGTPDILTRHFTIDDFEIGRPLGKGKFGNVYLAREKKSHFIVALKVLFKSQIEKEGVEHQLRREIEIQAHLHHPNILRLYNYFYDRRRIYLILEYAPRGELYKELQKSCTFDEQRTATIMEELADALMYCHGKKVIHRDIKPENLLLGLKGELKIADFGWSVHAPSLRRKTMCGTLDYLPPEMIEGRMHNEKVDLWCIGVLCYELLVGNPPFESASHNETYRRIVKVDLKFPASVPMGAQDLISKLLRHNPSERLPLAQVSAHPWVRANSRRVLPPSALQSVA

[7] = target: Hepatocyte growth factor receptor (Homo sapiens, UniProt P08581, Y1230H); test: Inhibition of cMET Y1230H mutant (unknown origin) autophosphorylation
SNU-5 [8] = test: Antitumor activity against human SNU5 cells xenografted in nu/nu CD1 mouse model assessed as maximum tumor regression at 100 mg/kg, po qd for 20 days
[9] = Plasma concentration in human MKN45 cells xenografted in mouse at 100 mg/kg, po after 16 hrs; format: ADME, organism-based, MKN-45; design: dose 100 mg/kg, route oral
Aurora kinase B [10] = target: T1, Aurora kinase B; test: Inhibition of aurora-B in human HT-29 cells assessed as phosphorylation of histone H3 at Ser10; format: cell-based
[11] = Protein binding in mouse plasma by equilibrium dialysis; format: ADME, cell-free; details: read-out: PPB (converted)
SNU-5 [12] = test: Antitumor activity against human SNU5 cells xenografted in nu/nu CD1 mouse model assessed as maximum tumor regression at 50 mg/kg, po qd for 20 days
Salmonella typhimurium [13] = test: Mutagenic activity in Salmonella typhimurium TA98 by Ames test in absence of liver S9 fraction; format: toxicity, organism-based; details: salmonella enterica subsp. enterica serovar typhimurium
Salmonella typhimurium [14] = test: Mutagenic activity in Salmonella typhimurium TA100 by Ames test in presence of liver S9 fraction; format: toxicity, organism-based; details: salmonella enterica subsp. enterica serovar typhimurium
[15] = target: ALK tyrosine kinase receptor (Homo sapiens, UniProt Q9UM73); test: Inhibition of ALK autophosphorylation in human Karpas-299 cells; format: cell-based
ALK tyrosine kinase receptor, sequence (Q9UM73 whole entry): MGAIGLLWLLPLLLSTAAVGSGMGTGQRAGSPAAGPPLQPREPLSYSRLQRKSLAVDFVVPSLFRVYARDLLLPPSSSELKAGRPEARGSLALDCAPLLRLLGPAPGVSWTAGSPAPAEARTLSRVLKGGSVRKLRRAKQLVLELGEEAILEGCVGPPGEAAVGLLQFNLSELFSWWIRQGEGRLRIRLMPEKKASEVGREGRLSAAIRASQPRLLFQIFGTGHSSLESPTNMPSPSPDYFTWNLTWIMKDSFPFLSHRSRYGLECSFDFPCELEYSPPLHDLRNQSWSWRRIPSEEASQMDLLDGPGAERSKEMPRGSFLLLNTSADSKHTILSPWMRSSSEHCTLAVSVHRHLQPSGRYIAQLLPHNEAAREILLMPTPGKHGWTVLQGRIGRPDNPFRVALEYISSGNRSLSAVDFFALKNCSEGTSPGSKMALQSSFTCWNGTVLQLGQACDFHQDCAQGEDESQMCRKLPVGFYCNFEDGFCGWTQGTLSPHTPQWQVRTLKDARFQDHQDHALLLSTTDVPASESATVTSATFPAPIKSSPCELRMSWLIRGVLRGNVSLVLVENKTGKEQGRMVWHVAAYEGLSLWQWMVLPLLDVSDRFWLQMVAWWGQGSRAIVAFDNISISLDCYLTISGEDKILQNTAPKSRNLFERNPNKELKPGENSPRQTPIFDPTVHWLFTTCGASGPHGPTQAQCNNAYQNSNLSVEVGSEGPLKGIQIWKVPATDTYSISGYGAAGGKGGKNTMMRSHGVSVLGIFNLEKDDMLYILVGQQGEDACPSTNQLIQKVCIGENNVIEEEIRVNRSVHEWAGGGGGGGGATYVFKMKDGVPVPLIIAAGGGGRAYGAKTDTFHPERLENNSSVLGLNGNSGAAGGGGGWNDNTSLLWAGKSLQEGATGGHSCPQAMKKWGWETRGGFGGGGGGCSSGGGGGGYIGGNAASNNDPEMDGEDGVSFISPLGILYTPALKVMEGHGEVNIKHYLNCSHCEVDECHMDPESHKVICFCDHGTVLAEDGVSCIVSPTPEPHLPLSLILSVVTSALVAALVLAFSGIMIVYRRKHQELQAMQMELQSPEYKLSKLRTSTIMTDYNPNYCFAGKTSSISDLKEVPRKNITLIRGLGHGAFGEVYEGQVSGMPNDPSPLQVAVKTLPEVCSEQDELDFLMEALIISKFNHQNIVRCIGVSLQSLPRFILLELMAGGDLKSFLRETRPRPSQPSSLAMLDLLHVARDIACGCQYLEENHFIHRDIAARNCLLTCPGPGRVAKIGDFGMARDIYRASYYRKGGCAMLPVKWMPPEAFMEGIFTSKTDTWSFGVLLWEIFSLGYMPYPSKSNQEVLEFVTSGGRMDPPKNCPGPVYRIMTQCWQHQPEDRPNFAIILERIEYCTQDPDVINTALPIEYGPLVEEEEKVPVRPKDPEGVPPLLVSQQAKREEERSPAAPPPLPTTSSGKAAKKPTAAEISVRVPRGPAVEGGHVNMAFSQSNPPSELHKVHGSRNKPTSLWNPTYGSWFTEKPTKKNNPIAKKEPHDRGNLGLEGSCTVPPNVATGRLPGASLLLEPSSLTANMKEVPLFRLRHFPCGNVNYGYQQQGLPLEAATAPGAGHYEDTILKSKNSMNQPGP

Salmonella typhimurium [16] = test: Mutagenic activity in Salmonella typhimurium TA98 by Ames test in presence of liver S9 fraction; format: toxicity, organism-based; details: salmonella enterica subsp. enterica serovar typhimurium
[17] = Solubility of the compound at pH 4.5; format: physicochemical; details: buffer
[18] = target: Vascular endothelial growth factor receptor 2 (Homo sapiens, UniProt P35968); test: Inhibition of KDR autophosphorylation in HUVEC
Vascular endothelial growth factor receptor 2, sequence (P35968 whole entry): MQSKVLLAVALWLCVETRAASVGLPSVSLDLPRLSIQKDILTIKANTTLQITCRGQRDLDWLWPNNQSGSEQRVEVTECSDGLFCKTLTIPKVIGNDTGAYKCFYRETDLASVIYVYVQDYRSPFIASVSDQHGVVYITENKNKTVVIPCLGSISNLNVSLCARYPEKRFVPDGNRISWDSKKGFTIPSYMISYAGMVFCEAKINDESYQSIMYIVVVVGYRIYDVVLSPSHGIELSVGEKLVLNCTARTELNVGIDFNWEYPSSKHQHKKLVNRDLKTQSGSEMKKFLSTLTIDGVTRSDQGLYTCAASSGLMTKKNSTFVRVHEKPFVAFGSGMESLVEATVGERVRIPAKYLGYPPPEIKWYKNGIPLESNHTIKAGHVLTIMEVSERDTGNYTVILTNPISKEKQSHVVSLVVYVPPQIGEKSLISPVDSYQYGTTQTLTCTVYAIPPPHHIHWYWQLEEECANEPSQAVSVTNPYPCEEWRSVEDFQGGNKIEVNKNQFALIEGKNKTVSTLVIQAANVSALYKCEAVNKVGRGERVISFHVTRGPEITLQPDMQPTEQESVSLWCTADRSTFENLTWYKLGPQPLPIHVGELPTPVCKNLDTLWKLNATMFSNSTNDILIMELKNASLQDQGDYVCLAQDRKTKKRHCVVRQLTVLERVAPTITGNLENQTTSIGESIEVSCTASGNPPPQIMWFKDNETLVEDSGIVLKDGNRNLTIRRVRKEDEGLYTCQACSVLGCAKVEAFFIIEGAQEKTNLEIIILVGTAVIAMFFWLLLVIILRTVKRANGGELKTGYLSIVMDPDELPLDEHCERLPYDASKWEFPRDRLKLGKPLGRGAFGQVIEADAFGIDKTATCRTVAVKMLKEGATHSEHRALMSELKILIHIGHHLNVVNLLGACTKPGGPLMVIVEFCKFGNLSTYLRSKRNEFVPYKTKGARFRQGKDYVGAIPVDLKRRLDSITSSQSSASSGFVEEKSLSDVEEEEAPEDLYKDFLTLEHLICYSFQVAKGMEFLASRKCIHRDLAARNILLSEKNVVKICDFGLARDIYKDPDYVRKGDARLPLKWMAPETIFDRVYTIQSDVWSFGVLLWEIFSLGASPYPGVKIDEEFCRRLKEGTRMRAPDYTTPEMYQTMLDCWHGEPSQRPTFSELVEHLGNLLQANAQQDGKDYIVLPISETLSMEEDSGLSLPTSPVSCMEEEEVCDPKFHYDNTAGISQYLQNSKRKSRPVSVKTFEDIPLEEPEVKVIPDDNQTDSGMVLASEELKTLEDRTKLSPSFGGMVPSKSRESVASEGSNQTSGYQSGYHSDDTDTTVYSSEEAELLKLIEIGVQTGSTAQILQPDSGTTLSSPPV

[19] = Clearance in Sprague-Dawley rat at 2 mg/kg, iv; format: ADME, organism-based; design: dose 2 mg/kg, route intravenous; details: in vivo
[20] = Metabolic stability in mouse liver microsomes assessed as extraction ratio up to 40 mins by LC-MS/MS analysis; format: ADME, Microsome; details: read-out: ERH
[21] = Oral bioavailability in Sprague-Dawley rat at 20 mg/kg; format: ADME, organism-based; details: in vivo
[22] = Antitumor activity against human U87MG cells xenografted in nu/nu CD1 mouse model assessed as tumor growth inhibition at 50 mg/kg, po bid for 14 days; format: functional, U-87MG ATCC; details: U-87 MG, 336 h, read-out: TGI
[23] = Antitumor activity against human U87MG cells xenografted in nu/nu CD1 mouse model assessed as maximum tumor regression at 100 mg/kg, po qd for 14 days; format: functional, U-87MG ATCC

Hepatocyte growth factor receptor (Homo sapiens, UniProt P08581, Y1230C), sequence (P08581 25-1390 Y1230C limits assumed): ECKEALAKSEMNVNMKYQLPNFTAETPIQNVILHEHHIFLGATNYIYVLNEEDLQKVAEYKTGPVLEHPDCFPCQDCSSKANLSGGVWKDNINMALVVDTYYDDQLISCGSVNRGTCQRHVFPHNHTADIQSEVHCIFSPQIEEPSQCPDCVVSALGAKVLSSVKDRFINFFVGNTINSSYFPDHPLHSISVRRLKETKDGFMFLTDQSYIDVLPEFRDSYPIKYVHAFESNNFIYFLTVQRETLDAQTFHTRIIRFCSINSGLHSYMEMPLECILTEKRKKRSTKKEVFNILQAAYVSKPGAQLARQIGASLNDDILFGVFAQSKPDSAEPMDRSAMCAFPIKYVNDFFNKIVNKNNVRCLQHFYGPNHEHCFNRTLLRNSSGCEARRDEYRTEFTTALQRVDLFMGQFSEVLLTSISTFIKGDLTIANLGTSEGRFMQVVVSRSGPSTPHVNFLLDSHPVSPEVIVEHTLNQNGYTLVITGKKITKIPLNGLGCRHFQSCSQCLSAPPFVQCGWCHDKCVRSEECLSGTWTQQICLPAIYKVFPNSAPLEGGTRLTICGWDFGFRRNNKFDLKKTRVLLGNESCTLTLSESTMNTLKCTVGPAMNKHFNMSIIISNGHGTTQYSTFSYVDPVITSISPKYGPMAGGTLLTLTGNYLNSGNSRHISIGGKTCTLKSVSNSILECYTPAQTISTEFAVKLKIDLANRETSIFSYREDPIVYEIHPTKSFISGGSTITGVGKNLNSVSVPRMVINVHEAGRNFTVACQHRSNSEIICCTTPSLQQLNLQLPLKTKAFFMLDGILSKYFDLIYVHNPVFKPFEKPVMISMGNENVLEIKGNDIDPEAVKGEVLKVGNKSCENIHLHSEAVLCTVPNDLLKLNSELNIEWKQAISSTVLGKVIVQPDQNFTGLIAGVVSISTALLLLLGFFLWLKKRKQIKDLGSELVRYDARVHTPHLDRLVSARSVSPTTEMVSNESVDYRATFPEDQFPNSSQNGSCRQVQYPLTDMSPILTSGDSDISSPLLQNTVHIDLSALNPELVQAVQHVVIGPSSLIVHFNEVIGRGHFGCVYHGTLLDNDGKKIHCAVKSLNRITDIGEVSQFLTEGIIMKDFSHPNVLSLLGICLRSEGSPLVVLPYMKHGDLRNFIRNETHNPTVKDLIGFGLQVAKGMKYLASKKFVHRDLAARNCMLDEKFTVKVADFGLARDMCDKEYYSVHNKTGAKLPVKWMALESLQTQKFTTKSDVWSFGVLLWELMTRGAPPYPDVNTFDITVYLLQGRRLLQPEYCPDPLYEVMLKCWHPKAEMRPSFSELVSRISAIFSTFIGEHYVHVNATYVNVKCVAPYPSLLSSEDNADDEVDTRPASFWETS

IC50 [2]: 72 nM | Vd [4]: 6.8 L/kg | IC50 (Aurora kinase B [6]): > 10000 nM | IC50 [7]: 110 nM | concentration at 16 h [9]: 520 nM | IC50 (Aurora kinase B [10]): 1000 nM | fraction unbound [11]: 0.018 | IC50 [15]: 500 nM | solubility [17]: 11 µM (≈ 5.12 µg/mL) | IC50 [18]: 6100 nM | clearance [19]: 39 mL/min/kg | hepatic extraction ratio at 40 min [20]: 0.7 | bioavailability [21]: 72%
Structure (SMILES): C[C@@H](Oc1c(N)ncc2c(C3=CCN(C(N)=O)CC3)coc12)c1c(Cl)ccc(F)c1Cl
inhibition in vivo at 100 mg/kg (SNU-5 [1]): 100% | Activity (Salmonella typhimurium [3]): Non-toxic | inhibition in vivo at 200 mg/kg (SNU-5 [5]): 100% | Activity (SNU-5 [8]): 64% | Activity (SNU-5 [12]): 31% | Activity (Salmonella typhimurium [13]): Non-toxic | Activity (Salmonella typhimurium [14]): Non-toxic | Activity (Salmonella typhimurium [16]): Non-toxic | inhibition in vivo at 50 mg/kg [22]: 79% | Activity [23]: 0%
